Experimental findings from patent US20250002461A1, “DEUTERATED (TRIFLUOROMETHYL)PYRIMIDINE-2-AMINE COMPOUNDS AS POTENTIATORS OF THE HMRGX1 RECEPTOR” (Eli Lilly and Company, priority 2021, published 2025) are described below.

A short description of data set [1]: Intrinsic clearance in human cryopreserved hepatocytes. The data set is classed as in vitro ADME. The settings on record: 0.3 μM substrate, 37° C. How it is done:
(§1) In Vitro Determination of Intrinsic Clearance in Mice and Human Hepatocytes
(§2) Cryopreserved hepatocytes are used to determine the in vitro metabolic clearance of pharmaceutical candidates. The following assay was conducted to compare the compound of Example 1 to its undeuterated analog, referred to hereinafter as Compound A:
(§3) Compound incubations (0.3 μM substrate concentrations) were then performed in a 96-well plate format at 37° C. with 200,000 cells/well, shaking at approximately 600 rpm. Incubations were initiated by direct addition of 2 μL of the substrate compounds. At 0, 15, 30, 60, and 90 minutes, 20 μL of incubation samples were quenched with 80 μL acetonitrile containing internal standard. Quenched plates were foil sealed, centrifuged for 30 minutes at 4000 rpm and analyzed for substrate by liquid chromatography with tandem mass spectrometry (LC-MS/MS).
(§4) Intrinsic clearance is a measure of the maximum potential liver metabolism of a compound when not restricted by blood flow or protein binding This intrinsic clearance was determined from the elimination rate constants (kdep; min^−1) measured from the disappearance of substrate in the incubations over time, using the following equation: […]

Data set [2] in a line: Intrinsic clearance in mouse cryopreserved hepatocytes. The class given is in vitro ADME. The note with it: 0.3 μM substrate, 37° C. The protocol:
as §1, §2, §3, §4

The nature of data set [3]: Determination of pharmacokinetics in mice. The class given is in vivo, mouse. The note with it: male CD-1 mice; for CLIV / Vd: IV 1 mg/kg; for Vd / bioavailability: mouse, whole blood (dried blood spot); for Vd: read-out: Vd, ss; for bioavailability: PO 10 mg/kg vs IV 1 mg/kg. The protocol:
Determination of Pharmacokinetics in Mice
Subjects: The subjects for these studies were male CD-1 mice from either Envigo, (Indianapolis, IN, USA) or Charles River Laboratories, Inc (Raleigh, NC, USA) between 4-12 weeks old at time of test. Each dosing group has three animals, and food and water is available ad libitum.
Dosing and Sample Collection: The test compound was administered intravenously (IV) via tail vein at 1 mg/kg (using vehicle: 25% (v/v) Dimethylacetamide (DMA), 15% (v/v) Ethanol (EtOH), 10% (v/v) Propylene Glycol (PG), 25% 2-Pyrrolidone (2-P), and 25% purified water) and orally (PO) via gavage needle at 10 mg/kg (using a vehicle of 1% (w/v) Hydroxyethylcellulose, 0.25% (w/v) Polysorbate 80, 0.05% (v/v) Antifoam1510-US in purified water quantum satis. Blood for dried blood spot (DBS) collection (approximately 20 μL) was collected from each available animal via a saphenous vein utilizing K2EDTA capillary tubes and stored at ambient temperature until analysis. Serial blood samples are collected at 0.08, 0.25, 0.5, 1, 2, 4, 8, 12, 24, and 48 h post dose for IV bolus and at 0.25, 0.5, 1, 2, 4, 8, 12, 24, and 48 h post dose after oral administration.
Sample Analysis: DBS cards (3 mm punches) of samples or standards were each mixed with a 180 uL solution of methanol: acetonitrile (1/1, v/v) containing internal standard to extract analyte followed by a two-fold dilution with water. A 10 uL aliquot of sample or standard is analyzed using an LC-MS/MS method. For Compound A, the lower limit of quantification (LLQ) was 5 ng/ml and the upper limit of quantification (ULQ) was 2500 ng/mL. For the compound of Example 1, the LLQ was 10 ng/ml and ULQ was 10,000 ng/mL
Calculation of pharmacokinetic parameters: Test article concentration data was uploaded into the Thermo Scientific™ Watson LIMS™ system where noncompartmental analysis was used to calculate Area Under the Curve (AUC) for both IV and PO arms, and Mean Residence Time (MRT) from the IV arm. • Bioavailability (% F) was calculated as follows,
[formula] • IV Clearance (CLIV) was calculated as follows,
[formula] • Volume of distribution at steady state (Vd,ss) was calculated as follows, […]

The target in data set [4] is T1, human MrgX1 receptor (Homo sapiens, UniProt Q96LB2).
T1 construct: expressed in transfected cells
T1 sequence (Q96LB2 whole entry): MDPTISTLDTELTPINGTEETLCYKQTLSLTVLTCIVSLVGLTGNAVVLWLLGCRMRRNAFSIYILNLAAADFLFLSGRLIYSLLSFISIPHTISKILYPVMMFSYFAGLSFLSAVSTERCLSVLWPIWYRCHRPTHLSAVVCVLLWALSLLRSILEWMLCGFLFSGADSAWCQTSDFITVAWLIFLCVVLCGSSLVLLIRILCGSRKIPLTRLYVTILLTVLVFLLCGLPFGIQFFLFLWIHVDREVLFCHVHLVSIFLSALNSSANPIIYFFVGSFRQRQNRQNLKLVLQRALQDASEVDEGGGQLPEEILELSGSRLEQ
Description: IP1 cellular assay for EC50 determination against hMrgX1 by HTRF. The settings on record: for EC50: HEK293 cells expressing human MrgX1, in presence of EC15 of BAM8-22, geometric mean (SEM, n), read-out: Relative EC50 (SEM, n); for Max (Mean ± SEM): maximum stimulation relative to saturating BAM8-22. The data set is classed as cell-based. How it is done:
IP1 Cellular Assay for EC50 Determination Against hMrgX1 by HTRF
Cell plating: HEK293 cells stably expressing the recombinant human MrgX1 receptor were expanded in culture flasks (Corning, T150), using growth media containing DMEM with glutamine (GIBCO™ Cat. #11960-044) supplemented with 10% heat-inactivated FBS (HyClone™, Cat. #CH30073), 1% penicillin/streptomycin (HyClone™, Cat. #SV30010; 10,000 U/mL penicillin; 10,000 μg/mL streptomycin in 0.85% NaCl), 20 mM HEPES (GIBCO™, Cat. #15630122) and 0.3 mg/mL G418 (GIBCO™ Cat. #11811031). When cell monolayers achieved a level of 80-90% confluence, monolayers were washed once with 10 mL of DPBS (HyClone™, Cat. #14190-144), dissociated using TrypLE™ Express enzyme cell dissociation media (GIBCO™ Cat. #12605-010), and were diluted by addition of 10 mL DPBS. Dissociated cells were transferred to a sterile 50 mL conical tube, pelleted by centrifugation at 300×g to remove the growth and dissociation media, and diluted to 1M cells/mL into DMEM for plating.
IP1 Potency and Efficacy Determination: Test compounds were dissolved in DMSO to a concentration of 10 mM and serially diluted in DMSO to obtain a 10-point concentration response stock dilution plate. Growth media was removed from the cell plate, and the stock 10-point dilution plate was diluted into media and stamped into the cell plate at a concentration 2× higher than the final test concentration of […] maximum. The endogenous agonist BAM8-22 (Tocris-BioScience Cat. #1763) was diluted to the EC15, determined independently at a minimum of n=3, into the cell plate and incubated at room temperature for 120 min. Subsequently, half the volume each of anti-IP1 cryptate and d2-labeled IP1 in lysis buffer, supplied with the IP-One Gq Kit (CisBio Cat. #62IPAPEC) was added to the cell plate to initiate cell lysis, and incubated for 60 min at room temperature in the dark. Fluorescence was then determined at 620 and 665 nm (˜100 us following laser excitation).
Data Analysis: Fluorescent ratios were determined as the ratio of the fluorescence emission at 665 nm over 620 nm and converted to IP1 concentration, using the IP1 standard curve generated in a separate plate, following the manufacturer's instructions. The IP1 concentration was then plotted as a function of compound concentration. […]
(In general: In TR-FRET formats the signal depends on donor and acceptor labels being close together.)

Data set [5] is described as follows: Plasma and brain homogenate protein binding by equilibrium dialysis. The data set is classed as in vitro ADME, mouse. The protocol: Determination of plasma and brain protein binding: Mouse plasma and brain homogenate protein binding was determined in vitro using equilibrium dialysis, as described elsewhere [Zamek-Gliszczynski et al., J Pharm Sci, 101:1932-1940, 2012]. The results are reported as fraction unbound in plasma (fu,plasma) and brain (fu,brain) which are then utilized to calculate Kp,uu,brain as described below. Mouse fu,plasma and fu,brain of Example 1 was determined to be 0.0667 and 0.011, respectively.
For orientation: In equilibrium dialysis only unbound substance equilibrates across the membrane.

The nature of data set [6]: In vivo determination of Kp,uu,brain in mice. The settings on record: male, CD1 (ICR), mouse, 100 mg/kg oral. The source says: In Vivo Determination of Kp,uu,Brain in Mice
Unbound brain-to-plasma partition coefficient (Kp,uu,brain) is one of the key pharmacokinetic parameters for evaluating a compound's ability to cross the blood-brain barrier (BBB). It is typically measured in pre-clinical species using the following methodology. Kp,uu,brain values indicate the fraction of free drug in plasma that partitions across the BBB.
Subjects: The subjects for these studies were 12 male CD1 (ICR) mice (Envigo, Indianapolis, IN, USA) between 5-7 weeks old at time of test. Mice were housed in groups of 4 in high density plastic home cages. Food and water were available ad libitum. The rooms were maintained at 73° F. with 30-70% relative humidity and kept on a light/dark cycle of 0600-1800 h.
Agent: The compound of Example 1 was prepared at 10 mg/ml in the 1% HEC, 0.25% TWEEN®80, 0.05% DOWSIL™ vehicle in water. Prepared compound was sonicated in water bath for 30 min until a suspension was formed. Mice were dosed orally at 10 ml/kg for a 100 mg/kg dose.
Dosing and Tissue Collection: For this experiment, ten mice received oral dosing of 100 mg/kg of the compound of Example 1. Mice were then euthanized at 2 h post-dosing via CO2 asphyxiation, plasma samples were collected via cardia puncture, and mouse brains removed, weighed, and frozen on dry ice. Blood samples were stored in EDTA tubes on wet ice and centrifuged at 15 k rpm for 10 min. Plasma was collected, plated in a 96-well plate, and frozen at −80° C.
Pharmacokinetic sampling: Plasma and brain samples obtained were analyzed for Example 1 using an LC-MS/MS method (Q2 Solutions, Indianapolis, IN, USA). Plasma samples were extracted using protein precipitation. The lower limit of quantification was 25 ng/mL, and the upper limit of quantification was 5000 ng/mL. Brain samples were homogenized, and the analyte was extracted using protein precipitation. The lower limit of quantification was 4 ng/g and the upper limit of quantification was 200000 ng/g.
Analysis and Results: Kp,uu,brain was calculated for each time point from the expression below where individual components are derived from a combination of in vitro and in vivo measurements carried out as described above:
where Ctotal,brain, Cu,brain, Ctotal,plasma, and Cu,plasma are total and unbound brain and plasma concentrations, and fu,brain and fu,plasma are fractions unbound in brain and plasma, respectively.

Each structure is given as a SMILES string. Where two headings read alike, the source gives them in different places.

A word on the hepatocyte CLint: it is the capacity of the preparation to metabolise the compound, expressed as a volume cleared per time. What is called Vd is the apparent volume that relates the amount in the body to the concentration in plasma or blood. A word on the bioavailability: it is the share of a dose that reaches the circulation, judged against a reference dose that is usually intravenous. A high value points to much systemic uptake. In data set [1], `Cc1c(Oc2c(F)cc(C#N)cc2F)nc(N)nc1C(F)(F)F` [Compound A, reference compound] came in with a hepatocyte CLint at 0.3 μM of 2.62 µL/min/1e6 cells. In data set [2], this molecule registered a hepatocyte CLint at 0.3 μM of under 1.8 µL/min/1e6 cells. Moreover, in data set [3], the CLIV is 16.1 ± 1.7 mL/min/kg, the volume of distribution (Vd) was found to be 6.6 ± 0.1 L/kg and the bioavailability amounted to 34 ± 3.7%.

The term EC50 denotes the concentration that produces a half-maximal response. One may read the fraction unbound as free concentration divided by total concentration. As for `[2H]C([2H])([2H])c1c(Oc2c(F)cc(C#N)cc2F)nc(N)nc1C(F)(F)F` [Example 1, 4-[2-amino-5-(trideuteriomethyl)-6-(trifluoromethyl)pyrimidin-4-yl]oxy-3,5-difluoro-benzonitrile], the hepatocyte CLint at 0.3 μM in data set [1] is 6.47 µL/min/1e6 cells; in data set [2], under 1.8 µL/min/1e6 cells. In addition, the EC50 in data set [4] stood at 22 nM. Besides, the “Max (Mean ± SEM)” value in data set [4] is given as 111 ± 14.9, n = 4%. Further, the fraction unbound in data set [5] (mouse brain homogenate, read-out: fraction unbound in brain (fu,brain)) amounted to 0.011; in data set [5] (mouse plasma, read-out: fraction unbound in plasma (fu,plasma)), 0.0667. In data set [3], this molecule gave a CLIV of 7.7 ± 1.3 mL/min/kg. The Vd in data set [3] came to 9.5 ± 3.1 L/kg. Also, the bioavailability in data set [3] worked out at 60 ± 2.6%. Also, the concentration at 2 h in data set [6] (brain (unbound), 2 h, using mouse fu,brain 0.011, read-out: Unbound brain conc. (Cu, brain) ± SD) was found to be 0.706 ± 0.25 µM; in data set [6] (brain, 2 h post dose, read-out: Total brain conc. (Ctotal, brain) ± SD), 64.1 ± 22.7 µM; in data set [6] (plasma (unbound), 2 h, using mouse fu,plasma 0.0667, read-out: Unbound plasma conc. (Cu, plasma) ± SD), 1.25 ± 0.418 µM; in data set [6] (plasma, 2 h post dose, read-out: Total plasma conc. (Ctotal, plasma) ± SD), 18.8 ± 6.26 µM. The Kp uu at 2 h in data set [6] (2 h, unbound brain-to-plasma partition coefficient) amounted to 0.586.

Regarding `[2H]C([2H])([2H])c1c(Oc2c(F)cccc2F)nc(N)nc1C(F)(F)F` [Example 2, 4-(2,6-difluorophenoxy)-5-(trideuteriomethyl)-6-(trifluoromethyl)pyrimidin-2-amine], in data set [4], the EC50 was determined as 28 nM and the “Max (Mean ± SEM)” value is on record as 106 ± 8.16, n = 4%.
